Measurements taken from ChEMBL document CHEMBL1122277, “l-1,2,3,4-Tetrahydro-8-methoxy-5-(methylthio)-2-naphthalenamine: a potent and selective agonist at alpha 1-adrenoceptors” (J Med Chem, 1983).

Tests used:
Assay type in all cases: functional
Oryctolagus cuniculus [1] = species: Oryctolagus cuniculus; test: (§1) Alpha-1-adrenergic potency measured in the isolated rabbit ear artery
Oryctolagus cuniculus [2] = species: Oryctolagus cuniculus; test: as §1; remark: listed apart in the source
Oryctolagus cuniculus [3] = test: Blockade of the constrictor response to exogenously administered L-norepinephrine

SMILES	EC50 (Oryctolagus cuniculus [1]) [nM]	EC50 (Oryctolagus cuniculus [2]) [nM]	KB (Oryctolagus cuniculus [3]) [nM]
COc1ccc(SC)c2c1CC(N)CC2 (centres undefined)	9	60	–
COc1cc2nc(N3CCN(C(=O)c4ccco4)CC3)nc(N)c2cc1OC [PRAZOSIN]	–	–	2.7
COC(=O)[C@@H]1[C@H]2C[C@H]3c4[nH]c5ccccc5c4CCN3C[C@@H]2CC[C@@H]1O [YOHIMBINE]	–	–	4000
